What all share (format): cell-based
One experiment has as its target T1, human P2X7 receptor (Homo sapiens, UniProt Q99572).
T1 construct: host or cells: HEK-293
T1 sequence (Q99572 1-595): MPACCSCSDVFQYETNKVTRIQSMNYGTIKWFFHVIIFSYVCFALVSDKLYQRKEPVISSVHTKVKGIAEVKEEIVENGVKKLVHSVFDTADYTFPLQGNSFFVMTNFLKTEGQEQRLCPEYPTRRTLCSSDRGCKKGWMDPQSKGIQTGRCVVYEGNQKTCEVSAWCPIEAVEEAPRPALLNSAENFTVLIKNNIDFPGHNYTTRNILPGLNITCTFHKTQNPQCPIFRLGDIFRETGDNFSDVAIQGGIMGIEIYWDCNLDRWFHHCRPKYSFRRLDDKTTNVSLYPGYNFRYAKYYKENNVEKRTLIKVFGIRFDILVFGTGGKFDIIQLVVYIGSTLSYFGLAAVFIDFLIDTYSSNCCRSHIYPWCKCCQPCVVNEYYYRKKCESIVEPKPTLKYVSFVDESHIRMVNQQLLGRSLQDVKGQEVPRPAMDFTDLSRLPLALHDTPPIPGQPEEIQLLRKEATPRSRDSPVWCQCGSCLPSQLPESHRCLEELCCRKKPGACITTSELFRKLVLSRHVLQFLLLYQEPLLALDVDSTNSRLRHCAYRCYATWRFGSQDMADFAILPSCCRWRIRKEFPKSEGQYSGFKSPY
Kind of experiment: YO‐PRO‐1 dye uptake assay for the P2X7 receptor. Conditions: for inhibition at 10 µM: P2X7, read-out: % Inhibition of P2X7R at 10 µM compounds’ concentration. On the procedure:
HEK‐293 cell lines stably expressing human P2X7 receptor (hP2X7R‐HEK‐293, B'SYS GmbH, Witterswil, Switzerland) were maintained in a 50/50 mix of Dulbecco's Modified Eagle Medium and F12 medium (DMEM/F12) supplemented with 9% (v/v) FCS, 1% (v/v) Penicillin/Streptomycin (10000 I.U./mL, 10 mg/mL in 0.9% NaCl) and G418 (100 µg/mL) at 37°C and 5% CO2. Cells were subcultured in cell culture 75 cm^2 flasks and split every 2‐4 days (1:3; 1:6; 1:10) once confluent.
HEK‐293 cell lines stably expressing human P2X7 receptor were seeded into black‐walled Nunc 96‐well optical bottom plates (Thermo Fisher Scientific) at 2.0–4.0 × 10^4 cells/well and incubated at 37°C for 24–48 h. After removing the culture medium, cells were washed with 100 µL wash buffer (280 mM Sucrose; 5.6 mM KCl; 0.5 mM CaCl2; 10 mM D‐Glucose; 10 mM HEPES; 5 mM N‐Methyl‐D‐glucamine (pH 7.4)). Then, 50 µL assay buffer (280 mM Sucrose; 6.4 mM KCl, 10 mM D‐Glucose; 10 mM HEPES; 5.0 mM N‐Methyl‐D‐glucamine (pH 7.4)) and 50 µL of antagonist dilutions (10^–5–10^–9 M) in assay buffer were added, and the cells were incubated at 37°C for 30 min. […] Finally, the uptake of YO‐PRO‐1 dye was recorded in a 9‐point‐well scan by following the fluorescence change using a FlexStation 3 Multi‐Mode Microplate Reader (Molecular Devices, San Jose, CA, USA, Software SoftMax7 Pro, endpoint protocol, well scan with reading pattern “fill scan”, λ ex = 485 nm, λ em = 535 nm). To determine the concentration‐dependent uptake inhibition by antagonists, the YO‐PRO‐1 uptake, expressed as RFU, was plotted against the concentrations of the compounds.

A further experiment has as its target T2, human P2X4 receptor (Homo sapiens, UniProt Q99571).
T2 construct: expressed in transfected cells; host or cells: human 1321N1 astrocytoma cells
T2 sequence (Q99571 1-388): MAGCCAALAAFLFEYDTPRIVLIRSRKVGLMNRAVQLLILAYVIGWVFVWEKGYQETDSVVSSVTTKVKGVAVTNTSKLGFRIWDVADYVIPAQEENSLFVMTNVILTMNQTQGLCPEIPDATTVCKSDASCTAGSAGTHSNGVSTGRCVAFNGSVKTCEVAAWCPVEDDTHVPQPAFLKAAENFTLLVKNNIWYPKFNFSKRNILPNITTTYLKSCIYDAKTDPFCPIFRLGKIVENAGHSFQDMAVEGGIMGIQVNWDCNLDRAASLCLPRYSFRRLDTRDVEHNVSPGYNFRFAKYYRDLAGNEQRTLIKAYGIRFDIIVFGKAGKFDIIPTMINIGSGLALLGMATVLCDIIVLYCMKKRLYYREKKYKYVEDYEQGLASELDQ
Kind of experiment: Ca2+‐flux assay for the hP2X4 receptor. Conditions: read-out: % Inhibition of P2X4R at 10 µM compounds’ concentration. As to the method:
Human 1321N1 astrocytoma cells stably expressing the human P2X4 receptor (generated in‐house) were cultured in Dulbecco's Modified Eagle Medium supplemented with 9% (v/v) FCS, 1% (v/v) Penicillin/Streptomycin (10000 I.U./mL, 10 mg/mL in 0.9% NaCl) and puromycin (1 µg/mL) as a selection antibiotic at 37°C and 5% CO2. Cells were subcultured in cell culture 75 cm^2 flasks and split every 2–4 days (1:5; 1:6) once confluent.
1321N1 cells stably expressing human P2X4 receptor were seeded into black‐walled 96‐well plates (Thermo Fisher Scientific) at 2.5 × 10^4 cells/well and incubated at 37°C for 24–48 h. All test compounds were diluted in assay buffer solution (SBS: 135 mM NaCl; 5 mM KCl; 1 mM MgCl2.6 H2O; 1.8 mM CaCl2; 5.6 mM D‐Glucose; 10 mM HEPES, 0.1% (m/v) BSA, 0.05% (m/v) gelatine, 2.3 mM probenecid). The culture medium was removed, and 100 µL of 4 μM fluorescent Ca^2+ indicator Calbryte520AM in SBS was added and incubated at 37°C for 1 h. The dye solution was then removed, 100 µL of SBS solution and 50 µL of antagonist dilutions (10^–5–10^–9 M) in SBS were added, and the cells were incubated at room temperature for an extra 30 min. Finally, 50 µL of ATP (at a concentration of the previously determined EC50‐ value) was added by using FlexStation 3 Multi‐Mode Microplate Reader (Molecular Devices, San Jose, CA, USA, Software SoftMax7 Pro). The changes in intracellular Ca^2+ ion concentrations were monitored over 200 s (20 s baseline) by measuring the fluorescence signal at λ ex = 494 nm and λ em = 516 nm ([…] cut‐off). The concentration‐dependent decrease in Ca^2+‐flux, expressed as RFU, was plotted against the concentrations of the compounds.

In the next experiment the test system is BT‐20 (breast carcinoma). As to the kind of experiment: Resazurin cell viability assay, BT‐20. The note with it: Homo sapiens, BT-20; 50 µM, 72 h, mean ± SD, n = 3; read-out: % Cellular growth inhibition (at 50 µM) BT‐20. On the procedure:
(§1) The tongue squamous cell carcinoma cell line CAL‐27 (ATCC CRL‐2095), breast carcinoma BT‐20 (ATCC HTB‐19), gastric carcinoma HGC‐27 (BCRJ Code 0310), and normal oral fibroblast OHMF (culture of fibroblasts derived from human oral healthy mucosa, approved by the Research Ethics Committee of the University of São Paulo, Campus of Ribeirão Preto, Brazil (with protocol number 049) were cultured in DMEM medium (DMEM, Sigma‐Aldrich, St. Louis, MO, USA) supplemented with 10% fetal bovine serum and a solution of penicillin (100 U/mL) and streptomycin (100 μg/mL). The cultures were maintained in a humidified incubator with 5% CO₂ at 37°C.
(§2) Cell viability was analyzed using the resazurin assay. For this, cells were seeded in 96‐well plates (1 × 10^3 cells per well) and incubated at 37°C with 5% CO₂ overnight for cell adhesion. Subsequently, the cells were treated with different compounds (0–50 µM) for 72 h. After treatment, the medium was replaced with phenol‐free DMEM medium (Sigma‐Aldrich) containing resazurin at a concentration of 44 µM (Sigma‐Aldrich). After incubation for 4 h at 37°C, fluorescence detection was performed (excitation 530/25 nm, emission 590/35 nm) using a microplate fluorimeter (Synergy 2, Biotek). Initial cell growth inhibition assays were performed in triplicate or quadruplicate, while IC50 determinations were conducted in triplicate. Data were plotted, and IC₅₀ values were determined by nonlinear regression using GraphPad Prism software 9.0.
(§3) ^a Cell viability was assessed using the resazurin assay after 72 hours of compound treatment. Fluorescence was measured to estimate % of cellular growth inhibition at 50 µM values, based on triplicate experiments.
(§4) ^b IC50 values were determined using the same resazurin-based assay, with fluorescence measurements performed after 72 hours of treatment. These experiments were carried out in triplicate.

The next experiment deals with CAL‐27 (oral carcinoma). As to the kind of experiment: Resazurin cell viability assay, CAL‐27. The note with it: Homo sapiens, CAL-27; 50 µM, 72 h, mean ± SD, n = 3; read-out: % Cellular growth inhibition (at 50 µM) CAL‐27. As to the method:
as §1, §2, §3, §4
Background: Alamar Blue is a resazurin reagent that responds to reducing activity.

Experiment [1] has as its system HGC‐27 (gastric carcinoma). Kind of experiment: Resazurin cell viability assay, HGC‐27. Conditions: Homo sapiens, HGC-27; 50 µM, 72 h, mean ± SD, n = 3; read-out: % Cellular growth inhibition (at 50 µM) HGC‐27. As to the method:
as §1, §2, §3, §4

Take `O=C(NCC12CC3CC(CC(C3)C1)C2)c1cc(CCCNCCCO)ccc1Cl` [AZD9056, reference compound]: the IC50 at human P2X7 receptor (reference compound, same conditions, read-out: pIC50 at P2X7R (converted)) is 10.5 nM.

For the compound `COc1ccc(CC(=O)c2cc(OC)c(OC)c(OC)c2)nc1` [Compound 5f, 2‐(5‐methoxypyridin‐2‐yl)‐1‐(3,4,5‐trimethoxyphenyl)ethenone], the figures for the inhibition at 10 µM at human P2X4 receptor and on human P2X7 receptor were 4% and 5%, respectively. For the same compound, the inhibition at 50 µM worked out at 52 ± 4.2% in the experiment with BT‐20 (breast carcinoma), 67 ± 2.7% in the experiment with CAL‐27 (oral carcinoma) and 48 ± 4.9% in experiment [1].

For the compound `O=C(c1ccc(Cl)cc1)c1ccn2ccccc12` [Compound 6b, (4‐chlorophenyl)(indolizin‐1‐yl)methanone], the results for the inhibition at 10 µM on human P2X4 receptor and at human P2X7 receptor were -3% and 10%, respectively. The inhibition at 50 µM in the experiment on BT‐20 (breast carcinoma) was determined as 32 ± 0.8%; in the experiment with CAL‐27 (oral carcinoma), 25 ± 0.4%; in experiment [1], 26 ± 1%.

With `Cc1ccc(C(=O)c2ccn3ccccc23)cc1` [Compound 6c, (Indolizin‐1‐yl)(p‐tolyl)methanone], the inhibition at 10 µM at human P2X4 receptor is 3%; on human P2X7 receptor it was -8%. Further, the inhibition at 50 µM in the experiment with BT‐20 (breast carcinoma) was determined as 28 ± 1.3%; in the experiment on CAL‐27 (oral carcinoma), 22 ± 2.6%; in experiment [1], 20 ± 0.6%.

With `COc1ccc(C(=O)c2ccn3ccccc23)cc1` [Compound 6d, (Indolizin‐1‐yl)(4‐methoxyphenyl)methanone], the inhibition at 10 µM at human P2X4 receptor was 0%; on human P2X7 receptor, 5%. Besides, the values for the inhibition at 50 µM (with BT‐20 (breast carcinoma); in the experiment on CAL‐27 (oral carcinoma); in experiment [1]) were 28 ± 0.5%, 18 ± 0.6% and 24 ± 1.1%, respectively.

As to `O=C(c1ccc(Cl)c(Cl)c1)c1ccn2ccccc12` [Compound 6e, (3,4‐dichlorophenyl)(indolizin‐1‐yl)methanone], the results for the inhibition at 10 µM at human P2X4 receptor and at human P2X7 receptor were 9% and 7%, respectively. Also, the inhibition at 50 µM was 40 ± 0.4% in the experiment on BT‐20 (breast carcinoma), 42 ± 0.8% in the experiment with CAL‐27 (oral carcinoma) and 41 ± 1% in experiment [1].

On to `COc1ccc2c(C(=O)c3ccccc3)ccn2c1` [Compound 7a, (6‐methoxyindolizin‐1‐yl)(phenyl)methanone], for which the inhibition at 10 µM is -7% on human P2X4 receptor and -6% at human P2X7 receptor. Moreover, the inhibition at 50 µM is 20 ± 0.4% in the experiment with BT‐20 (breast carcinoma), 20 ± 0.9% in the experiment with CAL‐27 (oral carcinoma) and 18 ± 0.5% in experiment [1].

Regarding `COc1ccc2c(C(=O)c3ccc(Cl)cc3)ccn2c1` [Compound 7b, (4‐chlorophenyl)(6‐methoxyindolizin‐1‐yl)methanone], the inhibition at 10 µM at human P2X4 receptor was 1%; at human P2X7 receptor it was 4%. The inhibition at 50 µM is 8 ± 1.3% with BT‐20 (breast carcinoma), 23 ± 1% with CAL‐27 (oral carcinoma) and 10 ± 1.4% in experiment [1].

In the case of `COc1ccc2c(C(=O)c3ccc(C)cc3)ccn2c1` [Compound 7c, (6‐methoxyindolizin‐1‐yl)(p‐tolyl)methanone], the inhibition at 10 µM at human P2X4 receptor was -2%; on human P2X7 receptor it was -9%. For the same compound, the values for the inhibition at 50 µM (in the experiment with BT‐20 (breast carcinoma); in the experiment on CAL‐27 (oral carcinoma); in experiment [1]) were 15 ± 0.5%, 20 ± 0.7% and 13 ± 0.7%, respectively.

On to `COc1ccc(C(=O)c2ccn3cc(OC)ccc23)cc1` [Compound 7d, (6‐methoxyindolizin‐1‐yl)(4‐methoxyphenyl)methanone], for which the inhibition at 10 µM at human P2X4 receptor stood at 8%; at human P2X7 receptor, 2%. The inhibition at 50 µM with BT‐20 (breast carcinoma) was 7 ± 0.9%; in the experiment with CAL‐27 (oral carcinoma), 15 ± 1.1%; in experiment [1] it was 1 ± 1%.

Take `CCOc1cn2cc(OC)ccc2c1C(=O)c1cc(OC)c(OC)c(OC)c1` [Compound 8c, (2‐ethoxy‐6‐methoxyindolizin‐1‐yl)(3,4,5‐trimethoxyphenyl)methanone]: the values for the inhibition at 10 µM on human P2X4 receptor and at human P2X7 receptor were 10% and 3%, respectively. For the same compound, the values for the inhibition at 50 µM (with BT‐20 (breast carcinoma); with CAL‐27 (oral carcinoma); in experiment [1]) were 55 ± 4.7%, 56 ± 4.6% and 43 ± 3.5%, respectively.

Values taken from PMC12673918, “Design, Synthesis, and Selective Antiproliferative Activity of Indolizine Derivatives as Microtubule Destabilizers” (Archiv Der Pharmazie, 2025).
